{
  "source": "patent US20040171592A1",
  "about": "“Organic nitrate-based compounds for the treatment of vasculopathies” (priority 2001, published 2004)",
  "key": {"[1]": {"tested_on": "SP-SHR rats (Stroke-Prone Spontaneously Hypertension Rats)", "experiment": "Mortality/survival in SP-SHR rats under chronic treatment for 16 weeks", "format": "in vivo", "details": "controls 0", "source_text": "Evaluation of the Mortality in SP-SHR Rats (Stroke-Prone Spontaneously Hypertension Rats) Treated With 2-acetyloxybenzoic acid (6-nitrooxymethyl)-2-methylpyridinyl hydrochloride ester (Formula XV), (NO-ASA) and Aspirin.\nIn this experiment SP-SHR rats were used which develop a severe hypertension, with a high incidence of spontaneous cerebral infarct. […] (Yamori Y. et al. Stroke 1976; 7: 46-53).\nThree groups each formed by 12 SP-SHR rats, 8 weeks old at the beginning of the experiment, received for 16 weeks together with the daily diet Aspirin (54 mg/kg) NO-ASA (30 mg/kg); the control group received only the diet.\nDuring the period of chronic treatment the percentage of animal survival was evaluated."}, "[2]": {"tested_on": "oxidized LDL in the vascular wall", "experiment": "Vascular damage in carotids: oxidized LDL in the vascular wall (MDA2 antibody immunohistochemistry)", "format": "in vivo, SP-SHR rats", "details": "control = 0", "experimental": "Evaluation of the Vascular Damage in Animals Treated With NO-ASA and Aspirin\nIn this experiment SP-SHR rats were used, as in the previous Example.\nThree groups, each formed by 12 SP-SHR rats, 8 weeks old at the beginning of the experiment, received respectively for 6 weeks, together with the daily diet Aspirin (54 mg/kg) NO-ASA (30 mg/kg) (two groups); the control group (third group) received only the diet.\nAt the end of the treatment the animals were sacrificed by decapitation and the carotids were isolated. The ducts were opened and washed with cold sterile buffer phosphate (PBS) containing EDTA (2 mM) and maintained in cold PBS (cooled in ice bath) containing 2, [6]-di-tert-butyl-p-cresol (50 μM), aprotin (0.001%), EDTA (50 mM) and chloramphenicol (0.008%). The arteries were fixed with formalin (10%), then soaked in paraffin and then dissected. An aliquot of the obtained sections was incubated with MDA2 antibodies, which are directed against specific epitopes for oxidized LDL.\nThe data were calculated by considering the number of the sections, positive at the immunohistochemical test with MDA2 antibodies, detected in the groups of the treated animals and in the control group, respectively. The results are expressed as percentage of reduction of the oxidized LDL (low density lipoprotein) presence in the vascular wall taking as 0 the LDL value measured in the control group."}, "[3]": {"tested_on": "restenosis experimentally caused by balloon angioplasty", "experiment": "Restenosis induced in rats by balloon angioplasty (neointima/middle tunica thickness ratio)", "format": "in vivo, Male Wistar rats", "details": "for Restenosis %: 14 days after vascular damage, control = 100; for formation of the neointima tunica in the vascular wall / restenosis (in words): summary of Table 1, NO-aspirin low doses, Aspirin high doses", "experimental": "Efficacy of Aspirin and of 2-acetyloxybenzoic acid (3-nitrooxymethyl)phenyl ester (Formula XI), in an Experimental Model of Restenosis Induced in Rats\nMale Wistar rats weighing 300-350 g were anaesthetized by intraperitoneal injection of ketamine (100 mg/kg) and xylazine (5 mg/kg) and subjected to angioplasty according to the procedure described by Indolfi et Al., Circulation, 1995, 92, 1230-1235, by using a little balloon catheter which was first introduced in the aortic arch through the right carotid, then swollen and then let pass three times forth and back in the duct lumen.\n(§1) The rats were divided in the indicated groups (n. 12 animals each) and subjected to pharmacological treatment as described hereunder for the 14 days following the vascular damage. The compounds, dissolved in polyethylenglycol (PEG 400) were administered by os by gastric probe according to the following scheme:\n2 groups received NO-Aspirin at the dose of 30 and 100 mg/kg, respectively,\n2 groups received Aspirin at the dose of 16 and 54 mg/kg, respectively,\n1 group received NO-Ketorolac at the dose of 10 mg/Kg,\n1 group received Ketorolac at the dose of 5 mg/Kg,\nthe control group received only the carrier (PEG 400, 0.2 ml/rat).\nAt the end of the treatment the animals were anaesthetized as described above and the carotids were first washed by infusion, through the left ventricle, of saline buffer phosphate (PBS, pH 7,2, 100 ml) then fixed with PBS containing paraformaldehyde (4%).\n(§2) The animals were sacrificed and the carotids removed. For each artery n. 6 sections having a thickness of 6 μm were isolated. Stomachs were removed and inspected for damages of the gastric mucosa, determining the areas of both bleeding lesions and non bleeding lesions. Said lesions were evaluated by a score according to known methods.\n3 of the 6 sections of each artery were stained with hematoxylin and eosin to evidence different types of cells, the remaining 3 sections were stained first with aldehyde fuchsin and then with the Gieson solution to evidence the internal elastic lamina (IEL). The sections were photographed and the imagines were analyzed by an image analysis system (Qwin Lite, Leica, Milan).\nThe thicknesses respectively of the middle and neointima tunica, and of the duct wall were measured. The results reported in Table 1 are expressed as percentage of restenosis and have been calculated as a ratio between the thickness of the neointima tunica and that of the middle tunica […] measured in the sections obtained from the groups, assuming equal to 100 the N/M ratio of the control group."}, "gastric mucosa": {"tested_on": "gastric mucosa", "experiment": "Damages to the gastric mucosa (lesion score) in the rats of the restenosis model", "format": "in vivo, Male Wistar rats", "details": "for Gastric damage Score: control score 2", "experimental": "as §1, §2"}, "[4]": {"details": "30 mg/kg/die with the daily diet"}, "[5]": {"details": "54 mg/kg/die with the daily diet"}},
  "note": "Marks after values point to notes of the source that are not given here.",
  "data": [
    {"smiles": "CC(=O)Oc1ccccc1C(=O)OCc1cccc(CO[N+](=O)[O-])n1.Cl", "note": "[NO-ASA, 2-(acetyloxy)benzoic acid, 6-(nitrooxymethyl)-2-methyl pyridinyl hydrochloride ester]", "values": [
      {"measurement": "% of survival, XVIth week", "setting": "[1]; [4]", "result": 100, "unit": "%"},
      {"measurement": "% of survival, Xth week", "setting": "[1]; [4]", "result": 100, "unit": "%"},
      {"measurement": "reduction % of the presence of oxidized LDL", "setting": "[2]; 30 mg/kg with the daily diet for 6 weeks", "result": 74, "unit": "%"}
    ]},
    {"smiles": "O=C(c1ccccc1)c1ccc2n1CCC2C(=O)OCCCCO[N+](=O)[O-]", "note": "(centres unmarked) [NO Ketorolac, 5-benzoyl-2,3-dihydro-1H-pyrrolizin-1-carboxylic acid (4-nitrooxy)butyl ester]", "values": [
      {"measurement": "Restenosis %", "setting": "[3]; 10 mg/Kg by os", "result": 90, "unit": "%"},
      {"measurement": "formation of the neointima tunica in the vascular wall / restenosis (in words)", "setting": "[3]", "result": "not very effective"},
      {"measurement": "Gastric damage Score", "setting": "gastric mucosa; Dose 10 mg/Kg", "result": 20},
      {"measurement": "gastric toxicity / lesions to the gastric mucosa (in words)", "setting": "gastric mucosa; summary of Table 1, Aspirin high doses", "result": "shows a gastric toxicity"}
    ]},
    {"smiles": "CC(=O)Oc1ccccc1C(=O)Oc1cccc(CO[N+](=O)[O-])c1", "note": "[NO-Aspirin, 2-(acetyloxy)benzoic acid 3-(nitrooxymethyl)phenyl ester]", "values": [
      {"measurement": "Restenosis %", "setting": "[3]; 30 mg/Kg by os", "result": "62.5* %"},
      {"measurement": "Restenosis %", "setting": "[3]; 100 mg/Kg by os", "result": "31* %"},
      {"measurement": "formation of the neointima tunica in the vascular wall / restenosis (in words)", "setting": "[3]", "result": "already significantly reduced"},
      {"measurement": "Gastric damage Score", "setting": "gastric mucosa; Dose 166 mg/Kg", "result": 2},
      {"measurement": "Gastric damage Score", "setting": "gastric mucosa; Dose 249 mg/Kg", "result": 4}
    ]},
    {"smiles": "O=C(c1ccccc1)c1ccc2n1CCC2C(=O)O", "note": "(centres unmarked) [Ketorolac, ketorolac]", "values": [
      {"measurement": "Restenosis %", "setting": "[3]; 5 mg/Kg by os", "result": 100, "unit": "%"},
      {"measurement": "Gastric damage Score", "setting": "gastric mucosa; Dose 5 mg/Kg", "result": 50}
    ]},
    {"smiles": "CC(=O)Oc1ccccc1C(=O)O", "note": "[Aspirin, aspirin]", "values": [
      {"measurement": "Restenosis %", "setting": "[3]; 16 mg/Kg by os", "result": 100, "unit": "%"},
      {"measurement": "Restenosis %", "setting": "[3]; 54 mg/Kg by os", "result": "55* %"},
      {"measurement": "formation of the neointima tunica in the vascular wall / restenosis (in words)", "setting": "[3]", "result": "small reduction of the restenosis"},
      {"measurement": "Gastric damage Score", "setting": "gastric mucosa; Dose 50 mg/Kg", "result": "22*"},
      {"measurement": "Gastric damage Score", "setting": "gastric mucosa; Dose 100 mg/Kg", "result": "42*"},
      {"measurement": "gastric toxicity / lesions to the gastric mucosa (in words)", "setting": "gastric mucosa; rat, in vivo", "result": "produce lesions to the gastric mucosa"},
      {"measurement": "% of survival, XVIth week", "setting": "[1]; [5]", "result": 50, "unit": "%"},
      {"measurement": "% of survival, Xth week", "setting": "[1]; [5]", "result": 100, "unit": "%"},
      {"measurement": "reduction % of the presence of oxidized LDL", "setting": "[2]; 54 mg/kg with the daily diet for 6 weeks", "result": 19, "unit": "%"}
    ]}
  ]
}
